Consider 2 molecules from paper PMC11643494, “Structure–Activity Relationship Studies in a Series of 2-Aryloxy-N-(pyrimidin-5-yl)acetamide Inhibitors of SLACK Potassium Channels” (Molecules, 2024).

What all share (assay type): cell-based
One series has as its target T1, hERG (Homo sapiens, UniProt Q12809).
T1 construct: expressed in transfected cells; host or cells: HEK293
Put plainly: Tl+-flux assay in HEK-293 cells, hERG. To be noted: HEK293 cells stably expressing hERG, pH 7.3, 10 µM test compound, relative to control bepridil, read-out: Percent Inhibition ± SEM, hERG. The source says:
(§1) Having executed our plan to prepare analogs across the identified regions of the chemotype (Figure 2), we identified two analogs for further profiling and evaluation. […] Desiring to add a second compound with some measure of structural differences, we also chose another submicromolar SLACK inhibitor 66 (VU0936154). Whereas 40 contains an ether linker and a halogenated phenyl group in the eastern region, […] contains an N-methyl linker and a phenyl group with a more polar cyano substituent. We first screened these analogs at 10 µM versus our in-house panel of ion channel targets using Tl^+-flux assays in HEK-293 cells expressing the human target of interest. […] Included in this set are Slo family members SLICK and two isoforms of Maxi-K, as well as several different K^+, Na^+, and Ca^2+ channels (Table 6). […] Of note was the excellent selectivity versus the broader panel of targets for both compounds, including versus the hERG channel.
(§2) Stably transfected monoclonal HEK293 cell lines expressing SLICK, Maxi-K α1/β3, Maxi-K α1/β4, CaV3.2, GIRK 1/2, KV2.1, KV7.2, NaV1.7, and TASK-1 were generated as previously described. […]
(§3) The Tl^+ flux assays were conducted as previously described, with modifications optimized for individual cell lines as described below. […] Cell plates were then loaded onto a Panoptic kinetic imaging plate reader (WaveFront Biosciences, Franklin, TN, USA). […]
Background: Block of hERG is tested as a sign of cardiac risk.

In the next series the target is T2, Maxi-K α1/β4 (Homo sapiens, UniProt Q12791).
T2 construct: expressed in transfected cells; host or cells: HEK293
Put plainly: Tl+-flux assay in HEK-293 cells, Maxi-K α1/β4. The following applies: HEK293; 10 µM test compound; relative to control paxilline; read-out: Percent Inhibition ± SEM, Maxi-K α1/β4.
From the text: as §1, §2, §3

The next series has as its target T3, KV2.1 (Homo sapiens, UniProt Q14721).
T3 construct: expressed in transfected cells; host or cells: HEK293
Description: Tl+-flux assay in HEK-293 cells, KV2.1. To be noted: HEK293; 10 µM test compound; relative to control guangxitoxin 1E; read-out: Percent Inhibition ± SEM, KV2.1.
From the text: as §1, §2, §3

Another series concerns the target T4, KV7.2 (Homo sapiens, UniProt O43526).
T4 construct: expressed in transfected cells; host or cells: HEK293
Description: Tl+-flux assay in HEK-293 cells, KV7.2. The following applies: HEK293; 10 µM test compound; relative to control XE991; read-out: Percent Inhibition ± SEM, KV7.2.
From the text: as §1, §2, §3

The target in the next series is T5, GIRK 1/2 (Homo sapiens, UniProt P48051+P48549).
T5 construct: expressed in transfected cells; host or cells: HEK293
Put plainly: Tl+-flux assay in HEK-293 cells, GIRK 1/2. To be noted: HEK293; 10 µM test compound; relative to control SCH23390; read-out: Percent Inhibition ± SEM, GIRK 1/2.
From the text: as §1, §2, §3

For another series, the target named is T6, Maxi-K α1/β3 (Homo sapiens, UniProt Q12791).
T6 construct: expressed in transfected cells; host or cells: HEK293
Put plainly: Tl+-flux assay in HEK-293 cells, Maxi-K α1/β3. The following applies: HEK293; 10 µM test compound; relative to control paxilline; read-out: Percent Inhibition ± SEM, Maxi-K α1/β3.
From the text: as §1, §2, §3

T5 sequence (P48549 whole entry): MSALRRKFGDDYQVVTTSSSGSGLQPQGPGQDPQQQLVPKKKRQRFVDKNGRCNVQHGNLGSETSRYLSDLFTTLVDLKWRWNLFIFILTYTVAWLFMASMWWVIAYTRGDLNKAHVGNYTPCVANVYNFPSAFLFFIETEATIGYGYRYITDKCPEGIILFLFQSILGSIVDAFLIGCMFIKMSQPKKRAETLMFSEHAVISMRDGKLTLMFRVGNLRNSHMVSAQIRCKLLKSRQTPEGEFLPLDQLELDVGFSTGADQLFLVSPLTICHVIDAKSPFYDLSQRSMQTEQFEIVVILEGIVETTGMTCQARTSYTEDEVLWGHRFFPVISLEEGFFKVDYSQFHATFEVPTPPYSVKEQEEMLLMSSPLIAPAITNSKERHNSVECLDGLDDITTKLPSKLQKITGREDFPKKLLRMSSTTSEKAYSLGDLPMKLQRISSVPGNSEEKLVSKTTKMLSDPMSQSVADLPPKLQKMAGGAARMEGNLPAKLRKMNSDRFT
T5 sequence (P48051 whole entry): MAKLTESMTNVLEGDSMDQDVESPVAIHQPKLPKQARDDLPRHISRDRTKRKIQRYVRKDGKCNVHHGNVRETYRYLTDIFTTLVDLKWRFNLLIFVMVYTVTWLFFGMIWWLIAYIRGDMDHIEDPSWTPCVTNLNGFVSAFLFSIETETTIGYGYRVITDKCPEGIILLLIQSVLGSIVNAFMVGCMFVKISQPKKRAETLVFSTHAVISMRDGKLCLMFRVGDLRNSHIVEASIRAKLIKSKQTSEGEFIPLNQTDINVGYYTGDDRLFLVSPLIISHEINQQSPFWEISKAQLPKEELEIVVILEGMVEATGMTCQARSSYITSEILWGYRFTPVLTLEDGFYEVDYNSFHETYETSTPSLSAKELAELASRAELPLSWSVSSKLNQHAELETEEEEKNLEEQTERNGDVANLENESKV
T3 sequence (Q14721 whole entry): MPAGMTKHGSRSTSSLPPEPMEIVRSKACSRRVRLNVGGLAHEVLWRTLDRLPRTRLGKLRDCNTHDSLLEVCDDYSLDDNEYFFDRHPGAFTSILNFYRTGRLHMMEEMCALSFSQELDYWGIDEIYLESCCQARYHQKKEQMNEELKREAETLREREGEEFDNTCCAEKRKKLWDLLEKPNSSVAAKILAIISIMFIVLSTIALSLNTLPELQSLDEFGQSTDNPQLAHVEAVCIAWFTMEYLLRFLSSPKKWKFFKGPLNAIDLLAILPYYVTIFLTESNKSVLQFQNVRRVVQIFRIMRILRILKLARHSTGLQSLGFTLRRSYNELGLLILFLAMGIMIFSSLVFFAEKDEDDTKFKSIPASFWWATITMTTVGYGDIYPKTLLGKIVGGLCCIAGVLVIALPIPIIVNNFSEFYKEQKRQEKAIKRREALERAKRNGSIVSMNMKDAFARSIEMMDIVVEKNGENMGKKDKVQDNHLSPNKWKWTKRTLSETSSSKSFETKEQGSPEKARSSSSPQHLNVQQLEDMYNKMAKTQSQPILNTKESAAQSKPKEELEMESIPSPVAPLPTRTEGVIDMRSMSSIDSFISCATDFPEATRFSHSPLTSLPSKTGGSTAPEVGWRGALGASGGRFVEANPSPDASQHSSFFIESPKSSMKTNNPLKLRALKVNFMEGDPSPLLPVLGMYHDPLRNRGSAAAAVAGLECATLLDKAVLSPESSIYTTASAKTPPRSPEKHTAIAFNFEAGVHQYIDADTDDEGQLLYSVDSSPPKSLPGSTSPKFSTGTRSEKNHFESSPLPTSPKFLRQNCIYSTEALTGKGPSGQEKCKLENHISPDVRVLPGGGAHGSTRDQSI
T2 sequence (Q12791 whole entry): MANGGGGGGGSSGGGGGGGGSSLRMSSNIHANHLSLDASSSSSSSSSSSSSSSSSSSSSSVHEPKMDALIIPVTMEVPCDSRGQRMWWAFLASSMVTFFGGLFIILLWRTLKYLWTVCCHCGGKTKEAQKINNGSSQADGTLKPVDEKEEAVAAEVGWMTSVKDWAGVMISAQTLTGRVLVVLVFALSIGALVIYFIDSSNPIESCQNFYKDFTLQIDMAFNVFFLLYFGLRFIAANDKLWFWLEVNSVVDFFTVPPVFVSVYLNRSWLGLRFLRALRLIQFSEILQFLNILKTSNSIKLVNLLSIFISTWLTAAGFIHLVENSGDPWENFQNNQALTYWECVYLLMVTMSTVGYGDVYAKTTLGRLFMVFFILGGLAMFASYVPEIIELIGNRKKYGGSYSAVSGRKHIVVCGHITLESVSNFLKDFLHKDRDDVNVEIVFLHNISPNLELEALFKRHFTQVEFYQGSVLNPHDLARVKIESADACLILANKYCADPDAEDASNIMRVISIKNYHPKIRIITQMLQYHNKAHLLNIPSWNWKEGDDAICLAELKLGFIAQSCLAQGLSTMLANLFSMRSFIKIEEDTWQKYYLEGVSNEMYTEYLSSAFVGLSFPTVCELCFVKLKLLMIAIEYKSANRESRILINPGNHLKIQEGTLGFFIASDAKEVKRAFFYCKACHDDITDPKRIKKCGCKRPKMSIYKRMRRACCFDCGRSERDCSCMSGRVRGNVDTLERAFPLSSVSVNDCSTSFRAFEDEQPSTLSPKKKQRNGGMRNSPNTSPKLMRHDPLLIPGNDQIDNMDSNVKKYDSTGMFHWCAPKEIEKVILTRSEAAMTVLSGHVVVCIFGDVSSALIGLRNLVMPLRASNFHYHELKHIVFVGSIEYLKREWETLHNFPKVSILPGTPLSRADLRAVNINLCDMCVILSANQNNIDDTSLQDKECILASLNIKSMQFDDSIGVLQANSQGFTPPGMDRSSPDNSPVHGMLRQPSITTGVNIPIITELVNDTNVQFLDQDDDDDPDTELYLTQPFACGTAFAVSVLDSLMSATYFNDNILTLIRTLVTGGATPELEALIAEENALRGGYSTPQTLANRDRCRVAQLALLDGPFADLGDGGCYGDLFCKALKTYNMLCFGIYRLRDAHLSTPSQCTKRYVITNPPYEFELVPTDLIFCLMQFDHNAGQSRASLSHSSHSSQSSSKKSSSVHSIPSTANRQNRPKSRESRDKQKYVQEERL
T2 sequence (Q86W47 whole entry partner): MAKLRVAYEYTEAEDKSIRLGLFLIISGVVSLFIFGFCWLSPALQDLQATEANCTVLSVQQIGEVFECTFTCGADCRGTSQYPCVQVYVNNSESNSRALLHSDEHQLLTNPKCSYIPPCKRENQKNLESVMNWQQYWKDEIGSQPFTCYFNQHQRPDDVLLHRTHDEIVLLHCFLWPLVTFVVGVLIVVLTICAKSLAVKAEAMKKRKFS
T6 sequence (Q12791 whole entry): as the sequence (Q12791 whole entry) above
T6 sequence (Q9NPA1 whole entry partner): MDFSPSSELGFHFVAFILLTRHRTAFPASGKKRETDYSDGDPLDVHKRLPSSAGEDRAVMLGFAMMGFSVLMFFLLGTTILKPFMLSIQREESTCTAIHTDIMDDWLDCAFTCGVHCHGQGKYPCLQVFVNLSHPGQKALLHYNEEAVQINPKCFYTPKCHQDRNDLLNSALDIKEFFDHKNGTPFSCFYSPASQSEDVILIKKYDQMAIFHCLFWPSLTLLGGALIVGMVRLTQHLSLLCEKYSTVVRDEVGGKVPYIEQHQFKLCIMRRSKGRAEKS
T1 sequence (Q12809 whole entry): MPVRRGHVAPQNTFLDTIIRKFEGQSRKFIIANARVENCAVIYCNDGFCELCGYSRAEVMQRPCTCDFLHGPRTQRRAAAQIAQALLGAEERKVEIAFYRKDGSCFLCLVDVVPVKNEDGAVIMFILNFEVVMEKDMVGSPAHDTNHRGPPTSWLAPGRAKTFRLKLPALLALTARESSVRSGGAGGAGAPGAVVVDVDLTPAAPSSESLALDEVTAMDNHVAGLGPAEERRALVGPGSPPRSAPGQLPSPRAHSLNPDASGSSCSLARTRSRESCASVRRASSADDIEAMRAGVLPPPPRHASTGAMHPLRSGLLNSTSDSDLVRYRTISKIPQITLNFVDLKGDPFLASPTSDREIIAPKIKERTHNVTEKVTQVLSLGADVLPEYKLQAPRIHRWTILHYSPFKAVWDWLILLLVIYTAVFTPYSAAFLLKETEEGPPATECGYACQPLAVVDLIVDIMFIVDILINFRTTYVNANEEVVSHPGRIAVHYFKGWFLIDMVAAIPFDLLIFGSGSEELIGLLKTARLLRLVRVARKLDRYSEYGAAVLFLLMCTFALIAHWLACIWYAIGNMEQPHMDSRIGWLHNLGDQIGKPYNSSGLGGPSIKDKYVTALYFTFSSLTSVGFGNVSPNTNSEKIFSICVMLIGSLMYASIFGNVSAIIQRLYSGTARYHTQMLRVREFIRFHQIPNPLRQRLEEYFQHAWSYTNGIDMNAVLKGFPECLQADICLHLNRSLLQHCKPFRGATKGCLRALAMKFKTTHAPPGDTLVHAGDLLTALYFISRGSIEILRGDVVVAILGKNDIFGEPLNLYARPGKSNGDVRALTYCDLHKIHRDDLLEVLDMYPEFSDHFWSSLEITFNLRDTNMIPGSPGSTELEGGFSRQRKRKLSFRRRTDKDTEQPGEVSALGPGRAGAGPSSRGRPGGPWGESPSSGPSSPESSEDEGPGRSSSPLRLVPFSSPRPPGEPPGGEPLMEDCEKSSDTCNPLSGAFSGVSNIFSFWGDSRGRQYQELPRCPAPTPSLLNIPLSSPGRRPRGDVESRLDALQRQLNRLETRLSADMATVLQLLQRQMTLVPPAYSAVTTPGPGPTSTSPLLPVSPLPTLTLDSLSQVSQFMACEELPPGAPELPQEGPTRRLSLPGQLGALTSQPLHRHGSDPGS

In the case of `CC(C)(Oc1ccc(Cl)cc1)C(=O)Nc1cnc(Oc2c(F)cccc2F)nc1` [Analog 40], at hERG, the inhibition at 120 s, 10 µM came to 0.9 ± 2.9%. Further, the inhibition at 10 µM at Maxi-K α1/β4 came out at 10 ± 7.4%; at KV2.1, 13 ± 5%; on KV7.2, 1.3 ± 1%; at GIRK 1/2 it was 6.8 ± 3.3%; on Maxi-K α1/β3, 27 ± 11%.

As to `CN(c1ccc(C#N)cc1)c1ncc(NC(=O)C(C)(C)Oc2ccc(Cl)cc2)cn1` [Analog 66], the inhibition at 120 s, 10 µM on hERG turned out to be 13 ± 3.3%. Further, the inhibition at 10 µM is 22 ± 2.5% at Maxi-K α1/β4; 10 ± 1.6% on KV2.1; 1.6 ± 0.94% on KV7.2; 6.4 ± 1.5% on GIRK 1/2; 30 ± 2.6% at Maxi-K α1/β3.
